Assays:
[1] = tested on: SCC-3; test: cells; format: functional, cell-based; settings: Homo sapiens;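 further: cell viability assay measuring inhibition of SCC-3 cell growth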
Description: SANGER: Inhibition of human SCC-3 cell growth in a cell viability assay.

[2] = tested on: CHP-126; test: cells; format: functional, cell-based; settings: Homo sapiens
Description: SANGER: Inhibition of human CHP-126 cell growth in a cell viability assay.

[3] = tested on: C-4-II; test: SANGER: Inhibition of human C-4-II cell growth in a cell viability assay.; format: functional, cell-based
[4] = tested on: NB1; test: cells; format: functional, cell-based; settings: Homo sapiens;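 further: reduction of NB1 cell proliferation, read out with a viability assay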
Description: SANGER: Inhibition of human NB1 cell growth in a cell viability assay.

[5] = tested on: CESS; test: SANGER: Inhibition of human CESS cell growth in a cell viability assay.; format: functional, cell-based
[6] = tested on: DV-90; test: cells; format: functional, cell-based; settings: Homo sapiens;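 further: Read-out is a viability assay, with IC50 reflecting the drop in DV-90 cell growth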
Description: SANGER: Inhibition of human DV-90 cell growth in a cell viability assay.

[7] = tested on: CMK; test: cells; format: functional, cell-based; settings: Homo sapiens;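 further: growth inhibition of CMK cells, read out as cell viability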
Description: SANGER: Inhibition of human CMK cell growth in a cell viability assay.

[8] = tested on: WSU-NHL; test: cells; format: functional, cell-based; settings: Homo sapiens;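 further: growth inhibition of human WSU-NHL cells, read out with a cell viability assay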
Description: SANGER: Inhibition of human WSU-NHL cell growth in a cell viability assay.

[9] = tested on: Calu-1; test: SANGER: Inhibition of human Calu-1 cell growth in a cell viability assay.; format: functional, cell-based
[10] = tested on: EW-7; test: SANGER: Inhibition of human EW-7 cell growth in a cell viability assay.; format: functional, cell-based; settings: Homo sapiens, EW-7
[11] = tested on: CA46; test: cells; format: functional, cell-based; settings: Homo sapiens;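 further: growth inhibition of human CA46 cells, read out by a cell viability assay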
Description: SANGER: Inhibition of human CA46 cell growth in a cell viability assay.

[12] = tested on: SNU-423; test: cells; format: functional, cell-based, Homo sapiens; settings: Homo sapiens, SNU-423
Description: SANGER: Inhibition of human SNU-423 cell growth in a cell viability assay.

[13] = tested on: NCI-H1522; test: cells; format: functional, cell-based; settings: Homo sapiens;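 further: growth inhibition of NCI-H1522 cells, read out with a cell viability assay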
Description: SANGER: Inhibition of human NCI-H1522 cell growth in a cell viability assay.

[14] = tested on: JIYOYE; test: cells; format: functional, cell-based; settings: Homo sapiens
Description: SANGER: Inhibition of human JiyoyeP-2003 cell growth in a cell viability assay.

[15] = tested on: NCI-H1734; test: cells; format: functional, cell-based; settings: Homo sapiens;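 further: growth inhibition of human NCI-H1734 cells, read out with a cell viability assay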
Description: SANGER: Inhibition of human NCI-H1734 cell growth in a cell viability assay.

[16] = tested on: NCI-H1573; test: cells; format: functional, cell-based; settings: Homo sapiens;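 further: growth inhibition of NCI-H1573 cells, read out with a cell viability assay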
Description: SANGER: Inhibition of human NCI-H1573 cell growth in a cell viability assay.

[17] = tested on: SIG-M5; test: cells; format: functional, cell-based; settings: Homo sapiens;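 further: cell viability assay read-out, measuring how strongly growth of cultured human SIG-M5 cells is inhibited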
Description: SANGER: Inhibition of human SIG-M5 cell growth in a cell viability assay.

[18] = tested on: SK-CO-1; test: cells; format: functional, cell-based; settings: Homo sapiens;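 further: growth inhibition of SK-CO-1 cells, determined by a viability readout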
Description: SANGER: Inhibition of human SK-CO-1 cell growth in a cell viability assay.

[19] = tested on: MRK-nu-1; test: cells; format: functional, cell-based; settings: Homo sapiens;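 further: cell viability assay measuring growth suppression of human MRK-nu-1 cells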
Description: SANGER: Inhibition of human MRK-nu-1 cell growth in a cell viability assay.

[20] = tested on: BOKU; test: cells; format: functional, cell-based; settings: Homo sapiens;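 further: growth inhibition of the human BOKU cell line, read out by a cell viability assay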
Description: SANGER: Inhibition of human BOKU cell growth in a cell viability assay.

[21] = tested on: NCI-H2081; test: cells; format: functional, cell-based; settings: Homo sapiens;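 further: growth inhibition of human NCI-H2081 cells, read out with a cell viability assay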
Description: SANGER: Inhibition of human NCI-H2081 cell growth in a cell viability assay.

[22] = tested on: HCC1143; test: cells; format: functional, cell-based; settings: Homo sapiens;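 further: growth inhibition of human HCC1143 cells, read out with a cell viability assay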
Description: SANGER: Inhibition of human HCC1143 cell growth in a cell viability assay.

[23] = tested on: MHH-CALL-2; test: cells; format: functional, cell-based; settings: Homo sapiens;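 further: growth inhibition of the cell line, read out in a cell viability assay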
Description: SANGER: Inhibition of human MHH-CALL-2 cell growth in a cell viability assay.

[24] = tested on: MES-SA; test: cells; format: functional, cell-based, Homo sapiens; settings: Homo sapiens, MES-SA;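 further: growth inhibition of human MES-SA cells, read out with a cell viability assay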
Description: SANGER: Inhibition of human MES-SA cell growth in a cell viability assay.

[25] = tested on: Raji; test: cells; format: functional, cell-based; settings: Homo sapiens;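 further: cell viability assay measuring inhibition of Raji cell growth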
Description: SANGER: Inhibition of human Raji cell growth in a cell viability assay.

[26] = tested on: EFE-184; test: cells; format: functional, cell-based; settings: Homo sapiens
Description: SANGER: Inhibition of human EFE-184 cell growth in a cell viability assay.

[27] = tested on: PF-382; test: cells; format: functional, cell-based; settings: Homo sapiens
Description: SANGER: Inhibition of human PF-382 cell growth in a cell viability assay.

[28] = tested on: PLC-PRF-5; test: cells; format: functional, cell-based; settings: Homo sapiens;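 further: growth inhibition of human PLC-PRF-5 cells, read out with a viability assay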
Description: SANGER: Inhibition of human PLC-PRF-5 cell growth in a cell viability assay.

[29] = tested on: DMS-53; test: cells; format: functional, cell-based, Homo sapiens; settings: Homo sapiens, DMS-53;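 further: cell viability assay measuring growth inhibition of human DMS-53 cells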
Description: SANGER: Inhibition of human DMS-53 cell growth in a cell viability assay.

[30] = tested on: LOUCY; test: cells; format: functional, cell-based; settings: Homo sapiens;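 further: growth inhibition of human LOUCY cells, read out with a cell viability assay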
Description: SANGER: Inhibition of human LOUCY cell growth in a cell viability assay.

[31] = tested on: SNU-475; test: cells; format: functional, cell-based; settings: Homo sapiens
Description: SANGER: Inhibition of human SNU-475 cell growth in a cell viability assay.

[32] = tested on: SNU-C1; test: cells; format: functional, cell-based; settings: Homo sapiens;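 further: growth inhibition of SNU-C1 human cells, read out by a cell viability assay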
Description: SANGER: Inhibition of human SNU-C1 cell growth in a cell viability assay.

[33] = tested on: SU-DHL-1; test: SANGER: Inhibition of human SU-DHL-1 cell growth in a cell viability assay.; format: functional, cell-based
[34] = tested on: TT; test: cells; format: functional, cell-based; settings: Homo sapiens
Description: SANGER: Inhibition of human TT cell growth in a cell viability assay.

[35] = tested on: IPC-298; test: SANGER: Inhibition of human IPC-298 cell growth in a cell viability assay.; format: functional, cell-based
[36] = tested on: RT-4; test: SANGER: Inhibition of human RT4 cell growth in a cell viability assay.; format: functional, cell-based; settings: Homo sapiens, RT-4
[37] = tested on: SNU-16; test: cells; format: functional, cell-based; settings: Homo sapiens;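 further: growth inhibition of human SNU-16 cells, determined with a cell viability readout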
Description: SANGER: Inhibition of human NCI-SNU-16 cell growth in a cell viability assay.

[38] = tested on: EVSA-T; test: cells; format: functional, cell-based, Homo sapiens; settings: Homo sapiens, EVSA-T;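 further: growth inhibition of EVSA-T cells, read out with a cell viability assay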
Description: SANGER: Inhibition of human EVSA-T cell growth in a cell viability assay.

[39] = tested on: NCI-H1618; test: cells; format: functional, cell-based; settings: Homo sapiens;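 further: growth inhibition of human NCI-H1618 cells, measured by a cell viability assay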
Description: SANGER: Inhibition of human NCI-H1618 cell growth in a cell viability assay.

[40] = tested on: SNG-M; test: cells; format: functional, cell-based; settings: Homo sapiens
Description: SANGER: Inhibition of human SNG-M cell growth in a cell viability assay.

[41] = tested on: NCI-H524; test: cells; format: functional, cell-based; settings: Homo sapiens;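 further: growth inhibition of human NCI-H524 cells, read out through a cell viability assay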
Description: SANGER: Inhibition of human NCI-H524 cell growth in a cell viability assay.

[42] = tested on: MDA-MB-468; test: cells; format: functional, cell-based; settings: Homo sapiens
Description: SANGER: Inhibition of human MDA-MB-468 cell growth in a cell viability assay.

[43] = tested on: RPMI 8402; test: SANGER: Inhibition of human RPMI-8402 cell growth in a cell viability assay.; format: functional, cell-based
[44] = tested on: Caov-3 cell line; test: cells; format: functional, cell-based; settings: Homo sapiens;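 further: cell growth inhibition read out by a viability assay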
Description: SANGER: Inhibition of human Caov-3 cell growth in a cell viability assay.

[45] = tested on: TE-15; test: cells; format: functional, cell-based; settings: Homo sapiens;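 further: cell viability readout of growth inhibition in TE-15 cells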
Description: SANGER: Inhibition of human TE-15 cell growth in a cell viability assay.

[46] = tested on: MFE-296; test: SANGER: Inhibition of human MFE-296 cell growth in a cell viability assay.; format: functional, cell-based

Cn1cncc1[C@@](N)(c1ccc(Cl)cc1)c1ccc2c(c1)c(-c1cccc(Cl)c1)cc(=O)n2C [TIPIFARNIB]
IC50 [1]: > 16000 nM
IC50 [2]: > 16000 nM
IC50 [3]: 6140 nM
IC50 [4]: > 16000 nM
IC50 [5]: 2020 nM
IC50 [6]: > 16000 nM
IC50 [7]: 151 nM
IC50 [8]: > 16000 nM
IC50 [9]: 181 nM
IC50 [10]: > 16000 nM
IC50 [11]: 2390 nM
IC50 [12]: 705 nM
IC50 [13]: > 16000 nM
IC50 [14]: 9180 nM
IC50 [15]: 14500 nM
IC50 [16]: 5900 nM
IC50 [17]: < 62.5 nM
IC50 [18]: 13000 nM
IC50 [19]: 1120 nM
IC50 [20]: > 16000 nM
IC50 [21]: > 16000 nM
IC50 [22]: 13300 nM
IC50 [23]: 10600 nM
IC50 [24]: 4610 nM
IC50 [25]: 12500 nM
IC50 [26]: 4580 nM
IC50 [27]: 1710 nM
IC50 [28]: > 16000 nM
IC50 [29]: > 16000 nM
IC50 [30]: > 16000 nM
IC50 [31]: > 16000 nM
IC50 [32]: > 16000 nM
IC50 [33]: 7270 nM
IC50 [34]: > 16000 nM
IC50 [35]: 5820 nM
IC50 [36]: 10900 nM
IC50 [37]: > 16000 nM
IC50 [38]: > 16000 nM
IC50 [39]: > 16000 nM
IC50 [40]: 204 nM
IC50 [41]: > 16000 nM
IC50 [42]: > 16000 nM
IC50 [43]: 1280 nM
IC50 [44]: > 16000 nM
IC50 [45]: 365 nM
IC50 [46]: 1450 nM

Cc1ccc(Nc2nccc(N(C)c3ccc4c(C)n(C)nc4c3)n2)cc1S(N)(=O)=O [PAZOPANIB]
IC50 [1]: > 8000 nM
IC50 [2]: > 8000 nM
IC50 [3]: > 8000 nM
IC50 [4]: > 8000 nM
IC50 [5]: > 8000 nM
IC50 [6]: > 8000 nM
IC50 [7]: > 8000 nM
IC50 [8]: > 8000 nM
IC50 [9]: > 8000 nM
IC50 [10]: > 8000 nM
IC50 [11]: > 8000 nM
IC50 [12]: > 8000 nM
IC50 [13]: > 8000 nM
IC50 [14]: > 8000 nM
IC50 [15]: > 8000 nM
IC50 [16]: 5970 nM
IC50 [17]: > 8000 nM
IC50 [18]: > 8000 nM
IC50 [19]: > 8000 nM
IC50 [20]: > 8000 nM
IC50 [21]: > 8000 nM
IC50 [22]: > 8000 nM
IC50 [23]: > 8000 nM
IC50 [24]: > 8000 nM
IC50 [25]: > 8000 nM
IC50 [26]: > 8000 nM
IC50 [27]: > 8000 nM
IC50 [28]: > 8000 nM
IC50 [29]: > 8000 nM
IC50 [30]: > 8000 nM
IC50 [31]: > 8000 nM
IC50 [32]: > 8000 nM
IC50 [33]: > 8000 nM
IC50 [34]: 5660 nM
IC50 [35]: > 8000 nM
IC50 [36]: > 8000 nM
IC50 [37]: > 8000 nM
IC50 [38]: > 8000 nM
IC50 [39]: > 8000 nM
IC50 [40]: 4090 nM
IC50 [41]: > 8000 nM
IC50 [42]: > 8000 nM
IC50 [43]: > 8000 nM
IC50 [44]: > 8000 nM
IC50 [45]: 7170 nM
IC50 [46]: 590 nM

C[C@]1(O)C[C@@H](c2nc(-c3ccc4ccc(-c5ccccc5)nc4c3)c3c(N)nccn32)C1 [LINSITINIB]
IC50 [1]: > 2560 nM
IC50 [2]: > 2560 nM
IC50 [3]: > 2560 nM
IC50 [4]: > 2560 nM
IC50 [5]: > 2560 nM
IC50 [6]: > 2560 nM
IC50 [7]: 999 nM
IC50 [8]: > 2560 nM
IC50 [9]: > 2560 nM
IC50 [10]: 189 nM
IC50 [11]: > 2560 nM
IC50 [12]: > 2560 nM
IC50 [13]: > 2560 nM
IC50 [14]: > 2560 nM
IC50 [15]: > 2560 nM
IC50 [16]: > 2560 nM
IC50 [17]: 536 nM
IC50 [18]: > 2560 nM
IC50 [19]: > 2560 nM
IC50 [20]: > 2560 nM
IC50 [21]: > 2560 nM
IC50 [22]: 2450 nM
IC50 [23]: > 2560 nM
IC50 [24]: > 2560 nM
IC50 [25]: > 2560 nM
IC50 [26]: > 2560 nM
IC50 [27]: > 2560 nM
IC50 [28]: > 2560 nM
IC50 [29]: > 2560 nM
IC50 [30]: > 2560 nM
IC50 [31]: > 2560 nM
IC50 [32]: 293 nM
IC50 [33]: > 2560 nM
IC50 [34]: > 2560 nM
IC50 [35]: > 2560 nM
IC50 [36]: > 2560 nM
IC50 [37]: > 2560 nM
IC50 [38]: > 2560 nM
IC50 [39]: > 2560 nM
IC50 [40]: > 2560 nM
IC50 [41]: > 2560 nM
IC50 [42]: > 2560 nM
IC50 [43]: > 2560 nM
IC50 [44]: > 2560 nM
IC50 [45]: > 2560 nM
IC50 [46]: > 2560 nM

C=CCc1cccc(/C=N/NC(=O)CN2CCN(Cc3ccccc3)CC2)c1O [PAC-1]
IC50 [1]: > 2560 nM
IC50 [2]: 918 nM
IC50 [3]: > 2560 nM
IC50 [4]: > 2560 nM
IC50 [5]: 1490 nM
IC50 [6]: > 2560 nM
IC50 [7]: 2130 nM
IC50 [8]: > 2560 nM
IC50 [9]: > 2560 nM
IC50 [10]: > 2560 nM
IC50 [11]: 2020 nM
IC50 [12]: > 2560 nM
IC50 [13]: > 2560 nM
IC50 [14]: 1100 nM
IC50 [15]: > 2560 nM
IC50 [16]: > 2560 nM
IC50 [17]: > 2560 nM
IC50 [18]: > 2560 nM
IC50 [19]: > 2560 nM
IC50 [20]: > 2560 nM
IC50 [21]: > 2560 nM
IC50 [22]: > 2560 nM
IC50 [23]: > 2560 nM
IC50 [24]: > 2560 nM
IC50 [25]: 2130 nM
IC50 [26]: > 2560 nM
IC50 [27]: 1060 nM
IC50 [28]: > 2560 nM
IC50 [29]: > 2560 nM
IC50 [30]: 823 nM
IC50 [31]: > 2560 nM
IC50 [32]: > 2560 nM
IC50 [33]: > 2560 nM
IC50 [34]: > 2560 nM
IC50 [35]: > 2560 nM
IC50 [36]: > 2560 nM
IC50 [37]: > 2560 nM
IC50 [38]: > 2560 nM
IC50 [39]: > 2560 nM
IC50 [40]: 1220 nM
IC50 [41]: > 2560 nM
IC50 [42]: > 2560 nM
IC50 [43]: 1770 nM
IC50 [44]: > 2560 nM
IC50 [45]: > 2560 nM
IC50 [46]: > 2560 nM

— ChEMBL document CHEMBL1201861, “Genomics of Drug Sensitity in Cancer screening data, Wellcome Trust Sanger Institute”
